Columns and labels:
[1] = parameters: method as in Coleman et al., 2014; conditions: ref Coleman et al., 2014, cited from earlier work; for KCa2 channel mediated side effects on CNS and heart rate: mice; for Blood pressure lowering: normotensive and hypertensive mice
[2] = test system: KCa3.1 over KCa2 channels; conditions: second generation activators; ref Coleman et al., 2014; cited from earlier work
KCa2.2 = biological target: T1, KCa2.2 (Homo sapiens, UniProt P0DP23+Q9H2S1); assay: QPatch automated whole-cell patch-clamp screen, 10 µM activator normalized to 10 µM SKA-31; format: cell-based; conditions: 250 nM free internal Ca2+, HEK cells stably expressing channel
T1 construct: expressed in transfected cells
Description: (§1) All experiments were performed in either the inside-out or the whole-cell configuration of the patch-clamp technique on either transiently transfected CHO cells or Human Embryonic Kidney (HEK) cell lines stably expressing hKCa3.1 or hKCa2.2 ([Sankaranarayanan et al., 2009]). All cells were cultured in Dulbecco’s modified Eagle’s medium supplemented with 10% fetal calf serum. Wild-type (WT) and mutant hKCa3.1 channel constructs were transfected using FuGENE 6 transfection reagent (Promega, Madison, WI) in OptiMEM reduced-serum medium (Life Technologies, Benicia, CA) for manual patch-clamp experiments or via electroporation (Nucleofector 2b and Lonza Amaxa Cell Line Nucleofector Kit T) according to the manufacturer’s instructions for automated electrophysiology.
(§2) The procedure for performing automated whole-cell KCa channel recordings on a QPatch-16 automated electrophysiology platform (Sophion Biosciences) was previously described in detail by our laboratory ([Jenkins et al., 2013]). For the current study we used the solutions described above with disposable 16-channel planar patch chip plates (QPlates; patch hole diameter […], resistance 2.00–0.02MΩ, Sophion Biosciences, Woburn, MA). Cell positioning and sealing parameters were set as follows: positioning pressure -70 mbar, resistance increase for success 750%, minimum seal resistance 0.1 GΩ, holding potential -0 mV, holding pressure -20 mbar. To avoid rejection of cells with large KCa3.1 currents, the minimum seal resistance for whole-cell requirement was lowered to 0.001 GΩ. Access was obtained with the following sequence: 1) suction pulses in 29 mbar increments from -250 mbar to -453 mbar; 2) a suction ramp of an amplitude of -450 mbar; 3) -400 mV voltage zaps of 1 ms duration. Following establishment of the whole-cell configuration, cells were held at -80 mV and KCa currents elicited by a voltage protocol that held at -80 mV for 20 ms, stepped to -120 mV for 20 ms, ramped from -120 to + 40 mV in 200 ms, and then stepped back to -120 mV for 20 ms. This pulse protocol was applied every 10 s. KCa activator dilutions were prepared freshly (within 5 min of the initiation of the QPatch) with Ringer’s solution from 10 mM stock solutions in dry DMSO. Final DMSO concentrations never exceeded 1%. Glass vial inserts (to avoid adsorption) were filled with 400 µL of compound solution and placed into the insert base plate for use in the QPatch assay. Exemplary QPatch raw current traces and plots of slope conductance versus time are shown in Supplementary Figure 3 . For each compound we typically used 12 consecutive liquid periods Break-in, 3 saline additions to stabilize the current, 2 additions of test compound at 10 µM, 2 saline washes, 2 additions of SKA-31 at 10 µM, followed by 2 more saline washes. In each liquid period 10 pulse protocols were run.
(§3) The newly synthesized compounds were tested by automated whole-cell patch-clamp for their ability to activate KCa2.2 and KCa3.1 channels stably expressed in HEK cells. […] A promising compound would ideally do both. […] We started by comparing the effect of the SKA-74 derivatives to SKA-31 ( Figure 4A ).
(§4) Figure 4 Whole-cell KCa3.1 and KCa2.2 responses elicited by 10 µM of activator and normalized to 10 µM of the mixed activator SKA-31. Experiments were performed by automated electrophysiology with 250 nM of free internal Ca^2+. In each experiment the new activator was tested first, washed out with 2 saline additions, and then SKA-31 was applied as positive control for normalization of the response. (A) Screening of SKA-74 derivatives. (B) Screening of SKA-75 and SKA-76 derivatives. The bar graphs show means ± SD of the slope conductance measured between −85 and −65 mV (n = 2–7 cells). Chemical structures are shown below the bar graphs.
(§5) Figure 5 Whole-cell KCa3.1 and KCa2.2 responses elicited by 10 µM of activator and normalized to 10 µM of the mixed activator SKA-31. […]

KCa3.1 = biological target: T2, KCa3.1 (Homo sapiens, UniProt O15554+P0DP23); assay: as above; format: cell-based; conditions: 250 nM free internal Ca2+, HEK cells stably expressing channel
T2 construct: expressed in transfected cells
Description: as §1, §2, §3, §4, §5

SMILES | melting point [°C] | Whole-cell KCa2.2 response elicited by 10 µM of activator normalized to 10 µM SKA-31 (described in words) (KCa2.2) | Whole-cell KCa3.1 response elicited by 10 µM of activator normalized to 10 µM SKA-31 (described in words) (KCa3.1) | KCa2 channel mediated side effects on CNS and heart rate [1] | Blood pressure lowering [1] | Selectivity for KCa3.1 [2]
Cc1cc2sc(N)nc2c2ccccc12 [SKA-111, 5-methylnaphtho[1,2-d]thiazol-2-amine] | – | – | – | avoiding KCa2 channel mediated side effects on the CNS and on heart rate | efficacious in lowering blood pressure | –
Cc1cc2nc(N)oc2c2ccccc12 [SKA-121, 5-methylnaphtho[2,1-d]oxazol-2-amine] | – | – | – | avoiding KCa2 channel mediated side effects on the CNS and on heart rate | efficacious in lowering blood pressure | 40–100 fold
Cc1ccc2cccc(-c3csc(N)n3)c2c1 [SKA-193, 4-(7-Methylnaphthalen-1-yl)thiazol-2-amine] | 154 to 156 | somewhat increased KCa channel activating potency | somewhat increased KCa channel activating potency | – | – | –
Cc1ccc2cc(-c3csc(N)n3)ccc2c1 [SKA-198, 4-(6-Methylnaphthalen-2-yl)thiazol-2-amine] | 178 to 179 | somewhat increased KCa channel activating potency | somewhat increased KCa channel activating potency | – | – | –
Nc1nc(-c2ccc(-c3csc(N)n3)cc2)cs1 [SKA-230, 4,4'-(1,4-Phenylene)bis(thiazol-2-amine)] | 350 | completely devoid of activity | completely devoid of activity | – | – | –
FC(F)(F)c1cccc(Nc2nc(-c3cccc4ccccc34)cs2)c1 [SKA-251, 4-(Naphthalen-1-yl)-N-(3-(trifluoromethyl)phenyl)thiazol-2-amine] | 135 | completely abolished activity | completely abolished activity | – | – | –
c1ccc(Nc2nc(-c3cccc4ccccc34)cs2)nc1 [SKA-258, 4-(Naphthalen-1-yl)-N-(pyridin-2-yl)thiazol-2-amine] | 225 | completely abolished activity | completely abolished activity | – | – | –
Cc1ccc(-c2csc(Nc3cccc(C(F)(F)F)c3)n2)cc1 [SKA-260, 4-(p-Tolyl)-N-(3-(trifluoromethyl)phenyl)thiazol-2-amine] | 108 | completely devoid of activity | completely devoid of activity | – | – | –
FC(F)(F)c1ccc(Nc2nc(-c3ccccc3)cs2)cc1 [SKA-268, 4-Phenyl-N-(4-(trifluoromethyl)phenyl)thiazol-2-amine] | 153 | completely devoid of activity | completely devoid of activity | – | – | –

Now from value to molecule, other results behind:

melting point [°C] | Whole-cell KCa2.2 response elicited by 10 µM of activator normalized to 10 µM SKA-31 (described in words) (KCa2.2) | Whole-cell KCa3.1 response elicited by 10 µM of activator normalized to 10 µM SKA-31 (described in words) (KCa3.1) | SMILES | KCa2 channel mediated side effects on CNS and heart rate [1] | Blood pressure lowering [1] | Selectivity for KCa3.1 [2]
140 to 141 | less potent than SKA-31 | less potent than SKA-31 | c1ccc(Nc2nc3c(ccc4ccccc43)s2)cc1 [SKA-146, N-Phenylnaphtho[1,2-d]thiazol-2-amine] | – | – | –
187 to 188 | abolished activity on KCa2.2 | preserved it again on KCa3.1 | CNc1nc2c(ccc3ccccc32)s1 [SKA-158, N-Methylnaphtho[1,2-d]thiazol-2-amine] | – | – | –
178 to 179 | inactive | inactive | Cc1nc2c(ccc3c([N+](=O)[O-])cccc32)s1 [SKA-215, 2-Methyl-6-nitronaphtho[1,2-d]thiazole] | – | – | –
289 to 291 | drastically reduced potency | drastically reduced potency | Nc1nc2c(cc([N+](=O)[O-])c3ccccc32)s1 [SKA-321, 5-Nitronaphtho[1,2-d]thiazol-2-amine] | – | – | –
119 to 121 | somewhat reduced potency | somewhat reduced potency | CCN(CC)c1cc2sc(N)nc2c2ccccc12 [SKA-330, N^5,N^5-Diethylnaphtho[1,2-d]thiazole-2,5-diamine] | – | – | –
